Assay results: the supplement of paper PMC10627819

Key:
S. pneumoniae D39V [1] = test: Bliss interaction score (quartile over a dose matrix) (fitness difference); higher = more antagonism (negative = synergy)
How it was run: (§1)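 Fitness was derived from optical density at entry into stationary phase, divided by the robust mean of the no-drug wells on the same plate. That reading was taken as OD595, and the ratio was capped at 1. Single-drug fitness was inferred from the combination data. The Bliss score, observed fitness minus the expected product of single-drug fitness, was summarised as quartiles over technical, biological and donor/recipient replicates.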

B. subtilis 168 [2] = test: as above
How it was run: as §1

S. aureus DSM 20231 [3] = test: as above
How it was run: as §1

S. aureus Newman [4] = test: as above
How it was run: as §1

S. pneumoniae D39V [5] = test: fitness (endpoint OD595 vs no drug) (fraction); higher = more growth
How it was run: (§2)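 Volumes were 30 µl per well, or 55 µl for S. pneumoniae, in 384-well plates inoculated at OD595 0.01. Media were TSB, LB Lennox or CY at 37 °C, and OD595 was read every 30 min for 14 h with first-reading background subtraction. Fitness is the ratio of optical density at stationary-phase entry to the robust mean of no-drug controls. That ratio is capped at 1.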

B. subtilis 168 [6] = test: as above
How it was run: as §2

S. aureus DSM 20231 [7] = test: as above
How it was run: as §2

S. aureus Newman [8] = test: as above
How it was run: as §2
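Throughout, for Bliss interaction score (quartile over a dose matrix): first quartile when negative (synergy) and third quartile when positive (antagonism).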

COc1c(N2C[C@@H]3CCCN[C@@H]3C2)c(F)cc2c(=O)c(C(=O)O)cn(C3CC3)c12 [Moxifloxacin] + CCN(CC)CCOC(=O)c1ccc(N)cc1 [Procaine]
Settings | Bliss interaction score
B. subtilis 168 [2] | -0.015
S. aureus DSM 20231 [3] | -0.0665
S. aureus Newman [4] | 0.0617
S. pneumoniae D39V [1] | 0.0674

fitness, one replicate
Settings | partner 85.5 µg/mL | partner 171 µg/mL | partner 342 µg/mL
S. aureus DSM 20231 [7], first compound 0.06 µg/mL | 0.684 | 0.666 | 0.688
S. aureus DSM 20231 [7], first compound 0.12 µg/mL | 0.481 | 0.468 | 0.492
S. pneumoniae D39V [5], first compound 0.0037 µg/mL | 0.927 | 0.926 | 0.826
S. pneumoniae D39V [5], first compound 0.0075 µg/mL | ≥ 1 | 0.93 | 0.845
S. pneumoniae D39V [5], first compound 0.015 µg/mL | 0.881 | 0.923 | 0.849

fitness
Settings | partner 85.5 µg/mL | partner 171 µg/mL | partner 342 µg/mL
B. subtilis 168 [6], first compound 0.0312 µg/mL | 0.0464 | 0.0462 | 0.0422
B. subtilis 168 [6], first compound 0.0625 µg/mL | 0.051 | 0.0447 | 0.0546
B. subtilis 168 [6], first compound 0.125 µg/mL | 0.0477 | 0.041 | 0.0508
B. subtilis 168 [6], first compound 2 µg/mL | 0.0328 | 0.02 | 0.021
B. subtilis 168 [6], first compound 4 µg/mL | 0.0283 | 0.0228 | 0.0275
B. subtilis 168 [6], first compound 8 µg/mL | 0.017 | 0.0132 | 0.0182
S. aureus DSM 20231 [7], first compound 0.0075 µg/mL | 0.781 | 0.876 | 0.898
S. aureus DSM 20231 [7], first compound 0.015 µg/mL | 0.712 | 0.744 | 0.773
S. aureus DSM 20231 [7], first compound 0.03 µg/mL | 0.619 | 0.677 | 0.669
S. aureus Newman [8], first compound 0.0075 µg/mL | 0.771 | 0.757 | 0.763
S. pneumoniae D39V [5], first compound 0.005 µg/mL | ≥ 1 | 0.996 | ≥ 1
S. pneumoniae D39V [5], first compound 0.01 µg/mL | ≥ 1 | 0.986 | 0.974
S. pneumoniae D39V [5], first compound 0.02 µg/mL | 0.966 | 0.929 | 0.874

COc1c(N2C[C@@H]3CCCN[C@@H]3C2)c(F)cc2c(=O)c(C(=O)O)cn(C3CC3)c12 [Moxifloxacin] + CN[C@H](CC(C)C)C(=O)N[C@H]1C(=O)N[C@@H](CC(N)=O)C(=O)N[C@H]2C(=O)N[C@H]3C(=O)N[C@H](C(=O)N[C@H](C(=O)O)c4cc(O)cc(O)c4-c4cc3ccc4O)[C@H](O)c3ccc(c(Cl)c3)Oc3cc2cc(c3O[C@@H]2O[C@H](CO)[C@@H](O)[C@H](O)[C@H]2O[C@H]2C[C@](C)(N)[C@H](O)[C@H](C)O2)Oc2ccc(cc2Cl)[C@H]1O [Vancomycin]
Settings | Bliss interaction score
B. subtilis 168 [2] | 0.031
S. aureus DSM 20231 [3] | -0.0583
S. aureus Newman [4] | -0.0617
S. pneumoniae D39V [1] | 0.0942

Settings | fitness
S. aureus DSM 20231 [7], first compound 0.0075 µg/mL, partner 0.1875 µg/mL | 0.818
S. aureus DSM 20231 [7], first compound 0.0075 µg/mL, partner 0.375 µg/mL | 0.854
S. aureus DSM 20231 [7], first compound 0.0075 µg/mL, partner 0.75 µg/mL | 0.853
S. aureus DSM 20231 [7], first compound 0.015 µg/mL, partner 0.1875 µg/mL | 0.745
S. aureus DSM 20231 [7], first compound 0.015 µg/mL, partner 0.375 µg/mL | 0.761
S. aureus DSM 20231 [7], first compound 0.015 µg/mL, partner 0.75 µg/mL | 0.84
S. aureus DSM 20231 [7], first compound 0.03 µg/mL, partner 0.1875 µg/mL | 0.667
S. aureus DSM 20231 [7], first compound 0.03 µg/mL, partner 0.375 µg/mL | 0.689
S. aureus DSM 20231 [7], first compound 0.03 µg/mL, partner 0.75 µg/mL | 0.652
S. aureus Newman [8], first compound 0.0075 µg/mL, partner 0.1875 µg/mL | 0.768
S. aureus Newman [8], first compound 0.0075 µg/mL, partner 0.375 µg/mL | 0.75
S. aureus Newman [8], first compound 0.0075 µg/mL, partner 0.75 µg/mL | 0.768
S. aureus Newman [8], first compound 0.015 µg/mL, partner 0.75 µg/mL | 0.518
S. aureus Newman [8], first compound 0.03 µg/mL, partner 0.375 µg/mL | 0.0717
S. aureus Newman [8], first compound 0.03 µg/mL, partner 0.75 µg/mL | 0.0889
S. pneumoniae D39V [5], first compound 0.0037 µg/mL, partner 0.03125 µg/mL | 0.881
S. pneumoniae D39V [5], first compound 0.005 µg/mL, partner 0.125 µg/mL | 0.909
S. pneumoniae D39V [5], first compound 0.0075 µg/mL, partner 0.03125 µg/mL | 0.908
S. pneumoniae D39V [5], first compound 0.0075 µg/mL, partner 0.0625 µg/mL | 0.853
S. pneumoniae D39V [5], first compound 0.0075 µg/mL, partner 0.125 µg/mL | 0.753
S. pneumoniae D39V [5], first compound 0.01 µg/mL, partner 0.125 µg/mL | 0.92
S. pneumoniae D39V [5], first compound 0.015 µg/mL, partner 0.03125 µg/mL | 0.897
S. pneumoniae D39V [5], first compound 0.015 µg/mL, partner 0.0625 µg/mL | 0.848
S. pneumoniae D39V [5], first compound 0.015 µg/mL, partner 0.125 µg/mL | 0.689
S. pneumoniae D39V [5], first compound 0.02 µg/mL, partner 0.125 µg/mL | 0.913

fitness, S. aureus DSM 20231 [7], one replicate
Settings | partner 0.1875 µg/mL | partner 0.375 µg/mL | partner 0.75 µg/mL
first compound 0.06 µg/mL | 0.688 | 0.694 | 0.704
first compound 0.12 µg/mL | 0.46 | 0.455 | 0.46
